The target in the experiment is T1, Ras-GAP interaction (Bos taurus, UniProt P09851).
T1 construct: made in house; host or cells: GAP: E. coli JM109 (plasmid pYO); Ha-Ras: E. coli RRllaci^q (plasmid pRas[Gly12 Ala59])
T1 sequence (P09851 1-1044): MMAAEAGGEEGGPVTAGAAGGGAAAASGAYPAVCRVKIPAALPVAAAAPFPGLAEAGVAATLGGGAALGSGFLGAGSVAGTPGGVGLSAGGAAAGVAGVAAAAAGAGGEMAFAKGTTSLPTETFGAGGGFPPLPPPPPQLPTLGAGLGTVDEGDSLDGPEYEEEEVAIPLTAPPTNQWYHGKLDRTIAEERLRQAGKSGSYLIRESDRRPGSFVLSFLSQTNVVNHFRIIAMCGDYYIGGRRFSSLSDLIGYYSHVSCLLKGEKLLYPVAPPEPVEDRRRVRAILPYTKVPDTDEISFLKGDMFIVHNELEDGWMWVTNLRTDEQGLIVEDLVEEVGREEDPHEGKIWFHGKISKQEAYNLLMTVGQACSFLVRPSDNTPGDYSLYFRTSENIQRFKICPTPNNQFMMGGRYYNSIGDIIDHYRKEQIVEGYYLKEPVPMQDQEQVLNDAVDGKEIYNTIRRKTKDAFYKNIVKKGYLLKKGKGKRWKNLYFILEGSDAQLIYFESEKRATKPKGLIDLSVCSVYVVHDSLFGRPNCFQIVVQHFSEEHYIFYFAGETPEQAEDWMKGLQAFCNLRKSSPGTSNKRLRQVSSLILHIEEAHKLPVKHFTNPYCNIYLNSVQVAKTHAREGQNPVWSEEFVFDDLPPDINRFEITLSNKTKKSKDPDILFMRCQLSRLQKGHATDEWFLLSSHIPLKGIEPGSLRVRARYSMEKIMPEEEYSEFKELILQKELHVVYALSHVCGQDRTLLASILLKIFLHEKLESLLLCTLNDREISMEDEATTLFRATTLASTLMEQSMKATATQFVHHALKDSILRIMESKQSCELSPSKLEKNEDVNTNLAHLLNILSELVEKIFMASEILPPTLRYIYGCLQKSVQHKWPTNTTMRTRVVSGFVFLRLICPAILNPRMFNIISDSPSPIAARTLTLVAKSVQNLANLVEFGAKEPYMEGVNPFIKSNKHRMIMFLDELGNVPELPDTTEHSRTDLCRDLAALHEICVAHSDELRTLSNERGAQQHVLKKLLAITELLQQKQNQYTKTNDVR
Nature of the experiment: Ras-GAP interaction inhibition assay (GAP-stimulated Ras GTPase, charcoal adsorption). Type of experiment: biochemical, bovine. The following applies: concentration of peptide required to reduce GAP stimulated Ras-GTP hydrolysis by 50%; 10 fmol GAP, 240 fmol Ha ras p21-GTP, 4 minutes at 24°C. The method, then:
The activity of the synthetic peptides of the present invention, as inhibitors of the interaction of ras with GAP was determined in an assay which measures GAP dependent, Ras GTPase activity. Bovine GAP was either purified from fresh bovine brains or recombinantly produced in E. coli. It is understood that the methods of the present invention may utilize either the recombinant full length GAP or the bovine brain derived GAP. In addition, GAP from other species, such as human and mouse, may be substituted for bovine GAP since they share about 95% amino acid homology. Truncated recombinant forms of GAP are also suitable for use in the Ras-GAP interaction assay [Marshall, M.S., et al., (1989), EMBO J., 8, pp1105-1110]. However, for the screening of synthetic peptides for their ability to block the Ras-GAP interaction, the recombinant, full length GAP is preferred.
The Ras protein utilized in the Ras-GAP GTPase assay of the present invention is Harvey ras (Ha-ras). It is understood that other forms of Ras protein are suitable for use in the present invention. Other suitable forms of Ras protein include, but are not limited to, Kirsten Ras, yeast S. cerevisiae RAS, and N-Ras. Furthermore, it is readily apparent to those skilled in the art that any form of Ras protein which is capable of interacting with GAP is suitable for use in the Ras-GAP GTPase assay.
Ras GTPase activity was measured by the charcoal adsorption procedure. Each 50 µL reaction contained 10 fmol purified GAP, 240 fmol Ha ras p21-[γ ³²P] GTP and 1 mg/mL BSA in buffer D. Varying amounts of the competing peptides were added as indicated. Prewarmed reactions (24°C) were initiated by the addition of GAP, then incubated for 4 minutes at 24°C. The reactions were terminated by the addition of 5 volumes of ice cold 5% activated charcoal (Sigma: HCl washed) in 50 mM NaH₂PO₄. GTPase activity was quantitated by measuring the free ³²P-orthophosphate in the cleared supernatant after centrifugation of the charcoal mix. GAP-stimulated Ras GTPase activity in the absence of competitors was 40-60 fmol Ras-GTP hydrolyzed; the 100% control value. In the absence of GAP, GTP hydrolysis was not detectable during the incubation period of the assay. Inhibitors of this assay block GAP-stimulated Ras GTPase without impairing intrinsic Ras GTPase, assayed in the absence of GAP following incubation at 24°C for one hour.
Ras peptides were dissolved in either 100% dimethyl formamide (DMF, American Burdick and Jackson) or 100% dimethyl sulfoxide (DMSO, Fluka UV-spectroscopy grade) at a calculated peptide concentration of 1-4 mM. Following 1 minute in a Sonicor SC-200 bath sonicator at room temperature, the peptide solutions were vortexed, and then centrifuged for 5 minutes at room temperature in an Eppendorf microfuge to remove any undissolved material. 20 µL of the cleared peptide solutions were then added to 80 µL of Buffer D in a dilution series covering a range of peptide concentrations from 0.02 µM up to the maximum solubility limit for each peptide. In each dilution, the solvent concentration was maintained at 20%. These peptides solutions were then centrifuged for 5 minutes at room temperature at 10,000 x g, and the cleared supernatants were divided into 2 parts. One part of each cleared peptide dilution was used in a GAP competition assay: 40 µL was added to a 5 µL solution containing 0.1 mg/mL BSA plus 240 fmol Ha-ras p21-[γ-³²P]GTP. Reactions were initiated upon addition of 5 µL of diluted GAP (10 fmol), and analyzed as described above.

No end group written: not given here.

One may read the IC50 as the concentration needed to halve the response being measured. A low value points to greater potency.

Turning to `CC[C@H](C)[C@H](NC(=O)[C@H](CC(C)C)NC(=O)[C@H](CCC(N)=O)NC(=O)[C@@H](NC(=O)[C@@H](NC(=O)[C@H](CC(C)C)NC(=O)[C@H](C)NC(=O)[C@@H](N)CO)[C@@H](C)O)[C@@H](C)CC)C(=O)N[C@@H](CCC(N)=O)C(=O)N[C@@H](CC(N)=O)C(=O)N[C@@H](Cc1c[nH]cn1)C(=O)N[C@@H](Cc1ccccc1)C(=O)N[C@H](C(=O)N[C@@H](CC(=O)O)C(=O)N[C@@H](CCC(=O)O)C(=O)N[C@@H](Cc1ccc(O)cc1)C(=O)O)C(C)C` [Ras 17-32], the midpoint of inhibition, the IC50, lay at 0.9 µM.
Compound SALTIQLIQNHFVDEYDPTIE [Ras 17-37] yielded a 50% inhibitory concentration (IC50) of 3.6 µM.
LIQNHFVDEYDPTIE [Ras 23-37]: the “IC50*” value is “no inhibition”.
